Assay results from ChEMBL document CHEMBL1201862, “PubChem BioAssay data set” (2004).
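Test compounds were applied to cells in 96-well plates for 48 hours at 5 doses. GI50 = concentration required for 50% inhibition of growth.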 Calls of active or inactive are those of the source. No stated cut-off is given here; in the data, active = GI50 up to about 1.1 µM and inactive = higher.

Tests used:
Test in all cases: inhibition of tumour cell growth, NCI panel, 48 h
BT-549 = test system: BT-549
NCI-H460 = test system: NCI-H460
NCI-H522 = test system: NCI-H522
ACHN = test system: ACHN
RXF 393 = test system: RXF 393
OVCAR-8 = test system: OVCAR-8
CCRF-CEM = test system: CCRF-CEM
Malme-3M = test system: Malme-3M
M14 = test system: M14
MDA-N = test system: MDA-N
LOX IMVI = test system: LOX IMVI
PC-3 = test system: PC-3
MCF7 = test system: MCF7
UACC-257 = test system: UACC-257
KM12 = test system: KM12
IGROV-1 = test system: IGROV-1
NCI/ADR-RES = test system: NCI/ADR-RES
HCC 2998 = test system: HCC 2998
MDA-MB-435 = test system: MDA-MB-435
UACC-62 = test system: UACC-62

Row | SMILES | GI50 (BT-549) | GI50 (NCI-H460) | GI50 (NCI-H522) | GI50 (ACHN) | GI50 (RXF 393) | GI50 (OVCAR-8) | GI50 (CCRF-CEM) | GI50 (Malme-3M) | GI50 (M14) | GI50 (MDA-N) | GI50 (LOX IMVI) | GI50 (PC-3) | GI50 (MCF7) | GI50 (UACC-257) | GI50 (KM12) | GI50 (IGROV-1) | GI50 (NCI/ADR-RES) | GI50 (HCC 2998) | GI50 (MDA-MB-435) | GI50 (UACC-62)
1 | Cc1cc(S(=O)(=O)Nc2nc(N)nc(N(C)C)n2)c(S)cc1Cl | > 10 µM (inactive) | > 10 µM (inactive) | > 10 µM (inactive) | > 10 µM (inactive) | > 10 µM (inactive) | > 10 µM (inactive) | > 10 µM (inactive) | > 10 µM (inactive) | > 10 µM (inactive) | > 10 µM (inactive) | > 10 µM (inactive) | > 10 µM (inactive) | > 10 µM (inactive) | > 10 µM (inactive) | > 10 µM (inactive) | > 10 µM (inactive) | > 10 µM (inactive) | > 10 µM (inactive) | – | –
2 | C=C1C(=O)OC2C1CCC(C)C1(O)C=CC(=O)C21C (configuration not stated) | – | > 10 µM (inactive) | – | 5.66 µM (inactive) | 9.31 µM (inactive) | 3.5 µM (inactive) | 2.73 µM (inactive) | > 10 µM (inactive) | – | 6.85 µM (inactive) | > 10 µM (inactive) | > 10 µM (inactive) | > 10 µM (inactive) | – | > 10 µM (inactive) | > 10 µM (inactive) | 3.95 µM (inactive) | > 10 µM (inactive) | > 10 µM (inactive) | 6.68 µM (inactive)
3 | CC1(CCOCc2ccccc2)NC(=O)NC1=O (configuration not stated) | > 100 µM (inactive) | > 100 µM (inactive) | > 100 µM (inactive) | > 100 µM (inactive) | > 100 µM (inactive) | > 100 µM (inactive) | – | > 100 µM (inactive) | > 100 µM (inactive) | > 100 µM (inactive) | > 100 µM (inactive) | > 100 µM (inactive) | – | > 100 µM (inactive) | > 100 µM (inactive) | > 100 µM (inactive) | > 100 µM (inactive) | > 100 µM (inactive) | > 100 µM (inactive) | > 100 µM (inactive)
4 | COC(=O)[C@@H]1CCCN1CCN1CCC[C@H]1C(=O)OC | – | > 100 µM (inactive) | > 100 µM (inactive) | > 100 µM (inactive) | > 100 µM (inactive) | > 100 µM (inactive) | – | > 100 µM (inactive) | > 100 µM (inactive) | > 100 µM (inactive) | – | > 100 µM (inactive) | > 100 µM (inactive) | – | > 100 µM (inactive) | – | > 100 µM (inactive) | – | > 100 µM (inactive) | > 100 µM (inactive)
5 | CCOC(=O)/C(=C\c1ccc(O)c(OC)c1)C(=O)c1ccccc1 | – | 22.2 µM (inactive) | 7.5 µM (inactive) | 15.8 µM (inactive) | 22.7 µM (inactive) | 11.7 µM (inactive) | 7.5 µM (inactive) | 18.6 µM (inactive) | 19.1 µM (inactive) | – | 7.21 µM (inactive) | – | – | 18.4 µM (inactive) | 11.6 µM (inactive) | 19.2 µM (inactive) | – | 19.6 µM (inactive) | – | 13.7 µM (inactive)
6 | COc1ccc(/C=C/c2ccnc3ccccc23)cc1OC | – | 15.2 µM (inactive) | 5.65 µM (inactive) | 24.2 µM (inactive) | 13.1 µM (inactive) | – | 13.2 µM (inactive) | 16.9 µM (inactive) | 20 µM (inactive) | 14.1 µM (inactive) | 10 µM (inactive) | 15.8 µM (inactive) | 6.82 µM (inactive) | 21.2 µM (inactive) | 14.7 µM (inactive) | 15.5 µM (inactive) | 14 µM (inactive) | 39 µM (inactive) | 15.1 µM (inactive) | 14.9 µM (inactive)
7 | C[C@@]1(OC(=O)c2cc([N+](=O)[O-])cc([N+](=O)[O-])c2)C[C@@H]2CCCC[C@@H]21 | > 100 µM (inactive) | > 100 µM (inactive) | > 100 µM (inactive) | > 100 µM (inactive) | – | > 100 µM (inactive) | > 100 µM (inactive) | 58.3 µM (inactive) | > 100 µM (inactive) | > 100 µM (inactive) | > 100 µM (inactive) | > 100 µM (inactive) | > 100 µM (inactive) | > 100 µM (inactive) | > 100 µM (inactive) | > 100 µM (inactive) | > 100 µM (inactive) | > 100 µM (inactive) | – | > 100 µM (inactive)
8 | CC1(C)CC(=O)C2=C(C1)NC1=C(C(=O)CC(C)(C)C1)C2c1ccc([N+](=O)[O-])cc1 | > 100 µM (inactive) | > 100 µM (inactive) | > 100 µM (inactive) | > 100 µM (inactive) | > 100 µM (inactive) | > 100 µM (inactive) | – | – | > 100 µM (inactive) | > 100 µM (inactive) | > 100 µM (inactive) | > 100 µM (inactive) | > 100 µM (inactive) | > 100 µM (inactive) | > 100 µM (inactive) | > 100 µM (inactive) | – | > 100 µM (inactive) | > 100 µM (inactive) | > 100 µM (inactive)
9 | Cc1sc(N/N=C2\C(=O)Nc3ccccc32)nc1-c1ccccc1 | 16.3 µM (inactive) | 10.2 µM (inactive) | – | 15.3 µM (inactive) | 15.8 µM (inactive) | 17.5 µM (inactive) | – | – | 16 µM (inactive) | 19.4 µM (inactive) | 12.6 µM (inactive) | – | 15.3 µM (inactive) | 21.4 µM (inactive) | 13.6 µM (inactive) | 9.48 µM (inactive) | 17 µM (inactive) | 22.2 µM (inactive) | 19.6 µM (inactive) | 13.7 µM (inactive)
10 | CCOC(=O)C(=O)/C(=C/n1c(=S)[nH]c2ccc([N+](=O)[O-])cc21)C(=O)OCC | – | > 100 µM (inactive) | – | > 100 µM (inactive) | > 100 µM (inactive) | > 100 µM (inactive) | > 100 µM (inactive) | – | > 100 µM (inactive) | > 100 µM (inactive) | > 100 µM (inactive) | > 100 µM (inactive) | > 100 µM (inactive) | > 100 µM (inactive) | > 100 µM (inactive) | – | > 100 µM (inactive) | > 100 µM (inactive) | > 100 µM (inactive) | > 100 µM (inactive)
11 | O=C(CCCN1CCc2[nH]c3cc(F)ccc3c2C1)c1ccc(F)cc1 | – | 10.9 µM (inactive) | 20.7 µM (inactive) | 13.8 µM (inactive) | 14.4 µM (inactive) | 15.1 µM (inactive) | 12 µM (inactive) | 12.6 µM (inactive) | 9.82 µM (inactive) | 15.7 µM (inactive) | 3.95 µM (inactive) | 12.9 µM (inactive) | 4.59 µM (inactive) | 15.4 µM (inactive) | 13.9 µM (inactive) | 16.4 µM (inactive) | 14.2 µM (inactive) | 3.33 µM (inactive) | 12.9 µM (inactive) | 12.7 µM (inactive)
12 | O=C1O/C(=C(/c2ccc(Cl)cc2)c2nc3ccccc3[nH]2)C(O)=C1c1ccc(Cl)cc1 | – | 2.73 µM (inactive) | 0.944 µM (active) | 2.51 µM (inactive) | 2.26 µM (inactive) | 2.82 µM (inactive) | 1.89 µM (inactive) | 2 µM (inactive) | 4.06 µM (inactive) | – | 2.44 µM (inactive) | – | – | 2.03 µM (inactive) | 3.29 µM (inactive) | 5.3 µM (inactive) | – | 2.83 µM (inactive) | – | 2.21 µM (inactive)
13 | CC(NC(=O)c1c(O)[nH]c(=S)[nH]c1=O)c1ccc([N+](=O)[O-])cc1 (configuration not stated) | > 100 µM (inactive) | > 100 µM (inactive) | – | > 100 µM (inactive) | > 100 µM (inactive) | – | 40.8 µM (inactive) | – | > 100 µM (inactive) | > 100 µM (inactive) | 90.8 µM (inactive) | 40.7 µM (inactive) | 71 µM (inactive) | > 100 µM (inactive) | 47.6 µM (inactive) | > 100 µM (inactive) | – | 35.8 µM (inactive) | > 100 µM (inactive) | 77.3 µM (inactive)
14 | O=Cc1cc2c(s1)C(=O)c1sccc1C2=O | – | 1.32 µM (inactive) | 0.785 µM (active) | 0.585 µM (active) | 0.337 µM (active) | 0.338 µM (active) | 0.476 µM (active) | 0.368 µM (active) | 0.0403 µM (active) | 0.0484 µM (active) | 0.0376 µM (active) | 2.08 µM (inactive) | 0.564 µM (active) | 0.345 µM (active) | 2.68 µM (inactive) | 1.49 µM (inactive) | 0.188 µM (active) | 1.56 µM (inactive) | 0.0187 µM (active) | 0.248 µM (active)
15 | O=S1(=O)c2ccccc2N(c2ccccc2)c2nnnn21 | 22.8 µM (inactive) | 31.3 µM (inactive) | 17.6 µM (inactive) | 29.4 µM (inactive) | 19.9 µM (inactive) | 30.1 µM (inactive) | 3.86 µM (inactive) | – | 20.9 µM (inactive) | – | 16.7 µM (inactive) | 44.3 µM (inactive) | 36.6 µM (inactive) | 42.3 µM (inactive) | 29.4 µM (inactive) | 32.3 µM (inactive) | 31.4 µM (inactive) | 17.7 µM (inactive) | 29.4 µM (inactive) | 15.7 µM (inactive)
16 | Cc1cc(O)no1 [HYMEXAZOL] | > 100 µM (inactive) | > 100 µM (inactive) | > 100 µM (inactive) | 18.9 µM (inactive) | > 100 µM (inactive) | > 100 µM (inactive) | – | – | > 100 µM (inactive) | – | > 100 µM (inactive) | > 100 µM (inactive) | > 100 µM (inactive) | > 100 µM (inactive) | – | > 100 µM (inactive) | > 100 µM (inactive) | > 100 µM (inactive) | > 100 µM (inactive) | > 100 µM (inactive)
